# According to patent publication US12533321B2, “Polypeptide formulations for oral delivery” (Bhami's Research Laboratory, Pvt. Ltd., priority 2022, dated 2026):
# How the values were obtained:
# [1] = Pharmacokinetics of PTH (1-34) in albumin crystal sugar truffle shell vs IV, plasma PTH (1-34) by ELISA; type: in vivo, Minipigs (Yorkshire); settings: 0.04 mg
# Excerpt: The PTH (1-34) was processed to prepare albumin microparticles containing PTH according to the procedure mentioned under Example 4. The microparticle of albumin crystals containing PTH was then lyophilized after washing with cold isopropanol.
# (§1) Pigs in the oral treatment group was either fasted overnight or fed prior to the test sample administration. […] The time of dosage of each animal was noted. […] An antibody, anti-PTH (1-34) was pre-coated onto a 96-well plate. […] The intensity of the yellow color is proportional to the PTH (1-34) amount bound on the plate.
# [2] = Pharmacokinetics of PTH (1-34) in albumin crystal capsule (Vitamin E) vs IV, plasma PTH (1-34) by ELISA; type: in vivo, Minipigs (Yorkshire); settings: 0.04 mg
# Excerpt: The PTH (1-34) was processed to prepare albumin microparticles containing PTH according to the procedure mentioned under Example 4. The microparticle of albumin crystals containing PTH was then lyophilized after washing with cold isopropanol. […] The capsule was then closed.
# as §1
# [3] = female, Yorkshire, minipig, plasma, iv
# [4] = female, Yorkshire, minipig, plasma, iv, IV, read-out: AUC 0-inf_pred
# [5] = female, Yorkshire, minipig, plasma, iv, IV, read-out: AUC 0-t
# [6] = female, Yorkshire, minipig, plasma, iv, IV, read-out: AUC t-inf_obs
# [7] = female, Yorkshire, minipig, plasma, iv, IV, read-out: AUC t-inf_pred
# [8] = female, Yorkshire, minipig, plasma, iv, IV, read-out: MRT 0-inf_obs
# [9] = female, Yorkshire, minipig, plasma, iv, IV, read-out: MRT 0-inf_pred
# [10] = female, Yorkshire, minipig, plasma, iv, read-out: MRT 0-t
# [11] = female, Yorkshire, minipig, plasma, iv, read-out: t½ (converted)
smiles,measurement,setting,value
CC[C@H](C)[C@H](NC(=O)[C@H](CCC(=O)O)NC(=O)[C@H](CO)NC(=O)[C@@H](NC(=O)[C@@H](N)CO)C(C)C)C(=O)N[C@@H](CCC(N)=O)C(=O)N[C@@H](CC(C)C)C(=O)N[C@@H](CCSC)C(=O)N[C@@H](Cc1cnc[nH]1)C(=O)N[C@@H](CC(N)=O)C(=O)N[C@@H](CC(C)C)C(=O)NCC(=O)N[C@@H](CCCCN)C(=O)N[C@@H](Cc1cnc[nH]1)C(=O)N[C@@H](CC(C)C)C(=O)N[C@@H](CC(N)=O)C(=O)N[C@@H](CO)C(=O)N[C@@H](CCSC)C(=O)N[C@@H](CCC(=O)O)C(=O)N[C@@H](CCCN=C(N)N)C(=O)N[C@H](C(=O)N[C@@H](CCC(=O)O)C(=O)N[C@@H](Cc1c[nH]c2ccccc12)C(=O)N[C@@H](CC(C)C)C(=O)N[C@@H](CCCN=C(N)N)C(=O)N[C@@H](CCCCN)C(=O)N[C@@H](CCCCN)C(=O)N[C@@H](CC(C)C)C(=O)N[C@@H](CCC(N)=O)C(=O)N[C@@H](CC(=O)O)C(=O)N[C@H](C(=O)N[C@@H](Cc1cnc[nH]1)C(=O)N[C@@H](CC(N)=O)C(=O)N[C@@H](Cc1ccccc1)C(=O)O)C(C)C)C(C)C [PTH (1-34)],Mean PTH (1-34) levels,"[1]; 0 h, IV",1429.01 ± 104.61 pg/mL
same,Mean PTH (1-34) levels,"[1]; 0.08 h, IV",2822.98 ± 196.91 pg/mL
same,Mean PTH (1-34) levels,"[1]; 0.16 h, IV",2898.29 ± 307.43 pg/mL
same,Mean PTH (1-34) levels,"[1]; 0.5 h, IV",1619.38 ± 229.76 pg/mL
same,Mean PTH (1-34) levels,"[1]; 1 h, IV",421.23 ± 126.34 pg/mL
same,Mean PTH (1-34) levels,"[1]; 2 h, IV",164.93 ± 39.5 pg/mL
same,Mean PTH (1-34) levels,"[1]; 4 h, IV",90.76 ± 7.55 pg/mL
same,Mean PTH (1-34) levels,"[1]; 12 h, IV",15.43 ± 1.57 pg/mL
same,AUMC 0-inf_obs,[1]; IV,4903.835 pg/ml * h^2
same,AUMC 0-inf_pred,[1]; IV,4888.052 pg/ml * h^2
same,AUMC 0-t,[1]; IV,3822.072 pg/ml * h^2
same,AUMC 0-t/0-inf_obs,[1]; IV,0.779
same,AUMC 0-t/0-inf_pred,[1]; IV,0.782
same,AUMC t-inf_obs,[1]; IV,1081.763 pg/ml * h^2
same,AUMC t-inf_pred,[1]; IV,1065.980 pg/ml * h^2
same,Cl_obs,[1]; IV,0.000 (mg)/(pg/ml)/h
same,Cl_pred,[1]; IV,0.000 (mg)/(pg/ml)/h
same,Clast_pred,[1]; IV,0.015205 ng/mL
same,Lambda_z,[1]; IV,0.233 h⁻¹
same,Tlast,[1]; IV,12.000 h
same,C0,[1]; [3],1.43 ng/mL
same,Cmax,[1]; [3],2.9 ng/mL
same,Tmax,[1]; [3],9.6 min
same,AUC(0-inf),"[1]; female, Yorkshire, minipig, plasma, iv, IV, read-out: AUC 0-inf_obs",2.72 ng·h/mL
same,AUC(0-inf),[1]; [4],2.72 ng·h/mL
same,AUC(0-t),[1]; [5],2.65 ng·h/mL
same,AUC(0-t),[1]; [6],0.0664 ng·h/mL
same,AUC(0-t),[1]; [7],0.0654 ng·h/mL
same,MRT inf,[1]; [8],1.8 h
same,MRT inf,[1]; [9],1.8 h
same,level at 12 h,"[1]; female, Yorkshire, minipig, plasma, iv, read-out: Clast_obs",0.0154 ng/mL
same,MRT last,[1]; [10],1.44 h
same,half-life,[1]; [11],2.98 h
same,AUMC 0-inf_obs,[2]; IV,4903.835 pg/ml * h^2
same,AUMC 0-inf_pred,[2]; IV,4888.052 pg/ml * h^2
same,AUMC 0-t/0-inf_obs,[2]; IV,0.779
same,AUMC 0-t/0-inf_pred,[2]; IV,0.782
same,AUMC t-inf_pred,[2]; IV,1065.980 pg/ml * h^2
same,AUMC_0-t,[2]; IV,3822.072 pg/ml * h^2
same,AUMC_t-inf obs,[2]; IV,1081.763 pg/ml * h^2
same,Cl_obs,[2]; IV,0.000 (mg)/(pg/ml)/h
same,Cl_pred,[2]; IV,0.000 (mg)/(pg/ml)/h
same,Clast_obs,[2]; IV,0.01543 ng/mL
same,Clast_pred,[2]; IV,0.015205 ng/mL
same,Lambda_z,[2]; IV,0.233 h⁻¹
same,Tlast,[2]; IV,12.000 h
same,C0,[2]; [3],1.43 ng/mL
same,Cmax,[2]; [3],2.9 ng/mL
same,Tmax,[2]; [3],9.6 min
same,AUC(0-inf),"[2]; female, Yorkshire, minipig, plasma, iv, IV, read-out: AUC 0-inf obs",2.72 ng·h/mL
same,AUC(0-inf),[2]; [4],2.72 ng·h/mL
same,AUC(0-t),[2]; [5],2.65 ng·h/mL
same,AUC(0-t),[2]; [6],0.0664 ng·h/mL
same,AUC(0-t),[2]; [7],0.0654 ng·h/mL
same,MRT inf,[2]; [8],1.8 h
same,MRT inf,[2]; [9],1.8 h
same,MRT last,[2]; [10],1.44 h
same,half-life,[2]; [11],2.98 h
same,level at 0 h,"[2]; female, Yorkshire, minipig, plasma, 0 h, IV, read-out: Mean PTH (1-34) levels",1.43 ± 0.105 ng/mL
same,level at 0.08 h,"[2]; female, Yorkshire, minipig, plasma, 0.08 h, IV, read-out: Mean PTH (1-34) levels",2.82 ± 0.197 ng/mL
same,level at 0.16 h,"[2]; female, Yorkshire, minipig, plasma, 0.16 h, IV, read-out: Mean PTH (1-34) levels",2.9 ± 0.307 ng/mL
same,level at 0.5 h,"[2]; female, Yorkshire, minipig, plasma, 0.5 h, IV, read-out: Mean PTH (1-34) levels",1.62 ± 0.23 ng/mL
same,level at 1 h,"[2]; female, Yorkshire, minipig, plasma, 1 h, IV, read-out: Mean PTH (1-34) levels",0.421 ± 0.126 ng/mL
same,level at 2 h,"[2]; female, Yorkshire, minipig, plasma, 2 h, IV, read-out: Mean PTH (1-34) levels",0.165 ± 0.0395 ng/mL
same,level at 4 h,"[2]; female, Yorkshire, minipig, plasma, 4 h, IV, read-out: Mean PTH (1-34) levels",0.0908 ± 0.00755 ng/mL
same,level at 12 h,"[2]; female, Yorkshire, minipig, plasma, 12 h, IV, read-out: Mean PTH (1-34) levels",0.0154 ± 0.00157 ng/mL
